Measurements: patent publication US20080107619A1, “Carbohydrate based cellulase inhibitors as feeding stimulants in termites” (University of Florida Research Foundation, Inc., priority 2006, published 2008)
Entries after “also recorded” stand apart in the source; their conditions may differ.

What was measured:
[1] = system: Formosan Subterranean Termite β-glucosidases; settings: after feeding; Zhu et al.; cited from earlier work
[2] = system: R. flavipes; settings: choice tests; Waller et al.; cited from earlier work
[3] = system: R. virginicus; settings: choice tests; Waller et al.; cited from earlier work
[4] = system: R. flavipes worker termites; assay: Validative feeding bioassays with mono- and di-saccharides; format: in vivo; settings: no-choice tests; concentrations tested 0.004-3.0% wt/wt; FIG. 12A

Row | Structure (SMILES) | inhibition [1] | consumption of treated paper substrates versus untreated controls [2] | consumption of treated paper substrates versus untreated controls [3] | feeding stimulation [4]
1 | COc1cc(C=CC(=O)O)cc(OC)c1O (stereo in doubt) [sinapinic acid] | completely ineffective | – | – | –
2 | O=C[C@H](O)[C@@H](O)[C@H](O)CO [xylose] | – | consumed more paper substrates | consumed more paper substrates | –
3 | OC[C@H]1O[C@H](O[C@H]2[C@H](O)[C@@H](O)C(O)O[C@@H]2CO)[C@H](O)[C@@H](O)[C@@H]1O (mixture of isomers) [maltose] | – | – | – | generally a feeding deterrent; also recorded: no significant feeding stimulation
4 | OC[C@H]1O[C@@](CO)(O[C@H]2O[C@H](CO)[C@@H](O)[C@H](O)[C@H]2O)[C@@H](O)[C@@H]1O [sucrose] | – | consumed more paper substrates | consumed more paper substrates | –
5 | O=C[C@H](O)[C@@H](O)[C@H](O[C@@H]1O[C@H](CO)[C@@H](O)[C@H](O)[C@H]1O)[C@H](O)CO [cellobiose] | – | – | – | no significant feeding stimulation
